Experimental data taken from patent US11427548B2 (Arvinas Operations, Inc., priority 2015, dated 2022).
Like-named read-outs stand apart in the source and are kept apart here.

Target: T1, Androgen Receptor (Homo sapiens, UniProt P10275)
T1 construct: endogenous in cells; host or cells: VCaP cells
T1 sequence (P10275 1-920): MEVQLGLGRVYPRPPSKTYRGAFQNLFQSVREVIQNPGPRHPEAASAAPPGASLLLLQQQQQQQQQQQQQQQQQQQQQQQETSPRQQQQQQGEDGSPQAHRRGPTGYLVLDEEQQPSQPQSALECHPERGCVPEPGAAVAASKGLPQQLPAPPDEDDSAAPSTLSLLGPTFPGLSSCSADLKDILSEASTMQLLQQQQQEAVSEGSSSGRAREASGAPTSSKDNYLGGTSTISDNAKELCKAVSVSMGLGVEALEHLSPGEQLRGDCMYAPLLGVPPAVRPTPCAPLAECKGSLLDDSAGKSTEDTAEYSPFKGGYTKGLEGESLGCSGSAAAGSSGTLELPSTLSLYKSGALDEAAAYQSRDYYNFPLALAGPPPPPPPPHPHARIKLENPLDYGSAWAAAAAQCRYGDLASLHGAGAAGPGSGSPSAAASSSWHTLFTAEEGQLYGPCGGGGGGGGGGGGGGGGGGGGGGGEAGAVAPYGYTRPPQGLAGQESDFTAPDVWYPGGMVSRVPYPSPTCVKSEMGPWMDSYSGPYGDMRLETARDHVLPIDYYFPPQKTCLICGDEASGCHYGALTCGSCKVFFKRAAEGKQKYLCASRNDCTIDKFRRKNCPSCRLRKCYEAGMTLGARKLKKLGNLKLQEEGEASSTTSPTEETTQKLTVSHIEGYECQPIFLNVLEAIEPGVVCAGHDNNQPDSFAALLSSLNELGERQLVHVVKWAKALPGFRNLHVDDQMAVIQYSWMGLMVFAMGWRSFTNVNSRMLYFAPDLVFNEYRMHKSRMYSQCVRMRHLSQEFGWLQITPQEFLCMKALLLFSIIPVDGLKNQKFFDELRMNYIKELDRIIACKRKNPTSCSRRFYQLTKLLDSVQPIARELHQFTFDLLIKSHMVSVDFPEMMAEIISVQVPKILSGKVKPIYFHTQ
Experiment: Androgen Receptor ELISA assay (PathScan AR ELISA) in VCaP cells: AR degradation, Dmax and DC50
Assay type: cell-based
Method in brief: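 VCaP cells in phenol red-free RPMI with 5% charcoal-stripped FBS were grown at least 3 days, then given compound as 7 half-log doses in 0.1% DMSO with 0.1 nM R1881 for 24 h. Lysates went into a sandwich AR ELISA with TMB read at 450 nm.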

[1] = VCaP cells; Table 35; read-out: VCaP DC50
[2] = VCaP, VCaP cells; Table 35; read-out: VCaP Dmax (%)
[3] = read-out: VCaP DC50; VCaP cells; Table 35

Structure (SMILES) | DC50 [1] | Dmax [2] | Dmax (VCaP, read-out: VCaP Dmax (%)) | DC50 [3]
Cc1ncsc1-c1ccc(CNC(=O)[C@@H]2C[C@@H](O)CN2C(=O)[C@@H](NC(=O)COCCN2CCC(c3ccc(C(=O)N[C@H]4C(C)(C)[C@H](Oc5ccc(C#N)c(Cl)c5)C4(C)C)cc3)CC2)C(C)(C)C)cc1 [Example 525] | > 0.501 µM | 51 to 70% | – | –
Cc1ncsc1-c1ccc(CNC(=O)[C@@H]2C[C@@H](O)CN2C(=O)[C@@H](NC(=O)COCCCCCNc2ccc(C(=O)N[C@H]3C(C)(C)[C@H](Oc4ccc(C#N)c(Cl)c4)C3(C)C)cc2)C(C)(C)C)nc1 [Example 538] | > 0.501 µM | 51 to 70% | – | –
CC(C)(C)[C@H](NC(=O)COCCCCCNc1ccc(C(=O)N[C@H]2C(C)(C)[C@H](Oc3ccc(C#N)c(Cl)c3)C2(C)C)cc1)C(=O)N1C[C@H](O)C[C@H]1C(=O)NCc1ccc(C#N)cc1 [Example 542] | < 0.05 µM | > 71% | – | –
Cc1ncsc1-c1ccc(CNC(=O)[C@@H]2C[C@@H](O)CN2C(=O)[C@@H](NC(=O)COCCOc2ccc(-c3c(F)cc(C(=O)N[C@H]4C(C)(C)[C@H](Oc5ccc(C#N)c(Cl)c5)C4(C)C)cc3F)cc2)C(C)(C)C)cc1 [Example 543] | < 0.05 µM | > 71% | – | –
Cc1ncsc1-c1ccc(CNC(=O)[C@@H]2C[C@@H](O)CN2C(=O)[C@@H](NC(=O)COCCN2CCN(c3ccc(C(=O)N[C@H]4C(C)(C)[C@H](Oc5ccc(C#N)c(Cl)c5)C4(C)C)cc3)CC2)C(C)(C)C)cc1 [Example 544] | < 0.05 µM | > 71% | – | –
Cc1ncsc1-c1ccc(CNC(=O)[C@@H]2C[C@@H](O)CN2C(=O)[C@@H](NC(=O)COCCCCOc2ccc(-c3ccc(N4C(=S)N(c5ccc(C#N)c(C(F)(F)F)c5)C(=O)C4(C)C)cc3)cc2)C(C)(C)C(=O)OC(C)(C)C)cc1 [Example 545] | – | – | 51 to 70% | < 0.05 µM
Cc1ncsc1-c1ccc(CNC(=O)[C@@H]2C[C@@H](O)CN2C(=O)[C@@H](NC(=O)COCCCCOc2ccc(-c3ccc(N4C(=S)N(c5ccc(C#N)c(C(F)(F)F)c5)C(=O)C4(C)C)cc3)cc2)C(C)(C)C(=O)O)cc1 [Example 546] | – | – | – | > 0.501 µM
CC(C)(C)[C@H](NC(=O)COCCCCNc1ccc(C(=O)N[C@H]2C(C)(C)[C@H](Oc3ccc(C#N)c(Cl)c3)C2(C)C)cc1)C(=O)N1C[C@H](O)C[C@H]1C(=O)NCc1ccc(C#N)cc1 [Example 547] | < 0.05 µM | 51 to 70% | – | –
C[C@H](NC(=O)[C@@H]1C[C@@H](O)CN1C(=O)[C@@H](NC(=O)COCCCCOc1ccc(C(=O)N[C@H]2C(C)(C)[C@H](Oc3ccc(C#N)c(Cl)c3)C2(C)C)cc1)C(C)(C)C)c1ccc(C#N)cc1 [Example 548] | < 0.05 µM | 51 to 70% | – | –
C[C@H](NC(=O)[C@@H]1C[C@@H](O)CN1C(=O)[C@@H](NC(=O)COCCOc1ccc(-c2ccc(C(=O)N[C@H]3C(C)(C)[C@H](Oc4ccc(C#N)c(Cl)c4)C3(C)C)cc2)cc1)C(C)(C)C)c1ccc(C#N)cc1 [Example 549] | < 0.05 µM | > 71% | – | –
CC(C)(C)[C@H](NC(=O)COCCOc1ccc(-c2ccc(C(=O)N[C@H]3C(C)(C)[C@H](Oc4ccc(C#N)c(Cl)c4)C3(C)C)cc2)cc1)C(=O)N1C[C@H](O)C[C@H]1C(=O)NCc1ccc(C#N)cc1 [Example 550] | < 0.05 µM | > 71% | – | –
CC(C)(C)[C@H](NC(=O)COCCCCCNc1ccc(C(=O)N[C@H]2C(C)(C)[C@H](Oc3ccc(C#N)c(Cl)c3)C2(C)C)cn1)C(=O)N1C[C@H](O)C[C@H]1C(=O)NCc1ccc(C#N)cc1 [Example 551] | < 0.05 µM | 51 to 70% | – | –
CC(C)(C)[C@H](NC(=O)COCCCCCNc1ccc(C(=O)N[C@H]2C(C)(C)[C@H](Oc3ccc(C#N)c(Cl)c3)C2(C)C)cc1)C(=O)N1C[C@H](O)C[C@H]1C(=O)NCc1ccc(Cl)cc1 [Example 552] | < 0.05 µM | 51 to 70% | – | –
Cc1ncsc1-c1ccc(CNC(=O)[C@@H]2C[C@@H](O)CN2C(=O)[C@@H](NC(=O)COCCNc2ccc(-c3ccc(C(=O)N[C@H]4C(C)(C)[C@H](Oc5ccc(C#N)c(Cl)c5)C4(C)C)cc3)cn2)C(C)(C)C)cc1 [Example 553] | < 0.05 µM | > 71% | – | –
Cc1ncsc1-c1ccc(CNC(=O)[C@@H]2C[C@@H](O)CN2C(=O)[C@@H](NC(=O)COCCCCNc2ccc(-c3ccc(N4C(=S)N(c5ccc(C#N)c(C(F)(F)F)c5)C(=O)C4(C)C)cc3)cn2)C(C)(C)C)cc1 [Example 554] | – | – | 51 to 70% | < 0.05 µM

Continued, in another order:

DC50 [1] | Dmax [2] | Structure (SMILES) | Dmax (VCaP, read-out: VCaP Dmax (%)) | DC50 [3]
< 0.05 µM | 51 to 70% | CC(C)(C)[C@H](NC(=O)COCCCCCNc1ccc(C(=O)N[C@H]2C(C)(C)[C@H](Oc3ccc(C#N)c(Cl)c3)C2(C)C)cc1)C(=O)N1C[C@H](O)C[C@H]1C(=O)NCc1ccc(-n2ccnn2)cc1 [Example 526] | – | –
< 0.05 µM | 26 to 50% | CC(C)(C)[C@H](NC(=O)COCCCCCNc1ccc(C(=O)N[C@H]2C(C)(C)[C@H](Oc3ccc(C#N)c(Cl)c3)C2(C)C)cc1)C(=O)N1C[C@H](O)C[C@H]1C(=O)NCc1ccc(-n2nccn2)cc1 [Example 527] | – | –
< 0.05 µM | 51 to 70% | CC(C)(C)[C@H](NC(=O)COCCCCCNc1ccc(C(=O)N[C@H]2C(C)(C)[C@H](Oc3ccc(C#N)c(Cl)c3)C2(C)C)cc1)C(=O)N1C[C@H](O)C[C@H]1C(=O)NCc1ccc(-c2nnc[nH]2)cc1 [Example 528] | – | –
< 0.05 µM | < 25% | CC(C)(C)[C@H](NC(=O)COCCCCCNc1ccc(C(=O)N[C@H]2C(C)(C)[C@H](Oc3ccc(C#N)c(Cl)c3)C2(C)C)cc1)C(=O)N1C[C@H](O)C[C@H]1C(=O)NCc1ccc(-n2ccccc2=O)cc1 [Example 529] | – | –
< 0.05 µM | > 71% | CC(C)(C)[C@H](NC(=O)COCCCCCNc1ccc(C(=O)N[C@H]2C(C)(C)[C@H](Oc3ccc(C#N)c(Cl)c3)C2(C)C)cc1)C(=O)N1C[C@H](O)C[C@H]1C(=O)NCc1ccc(-n2cncn2)cc1 [Example 530] | – | –
< 0.05 µM | 26 to 50% | CC(C)(C)[C@H](NC(=O)COCCCCCNc1ccc(C(=O)N[C@H]2C(C)(C)[C@H](Oc3ccc(C#N)c(Cl)c3)C2(C)C)cc1)C(=O)N1C[C@H](O)C[C@H]1C(=O)NCc1ccc(-c2cccnn2)cc1 [Example 531] | – | –
< 0.05 µM | 51 to 70% | CC(C)(C)[C@H](NC(=O)COCCCCCNc1ccc(C(=O)N[C@H]2C(C)(C)[C@H](Oc3ccc(C#N)c(Cl)c3)C2(C)C)cc1)C(=O)N1C[C@H](O)C[C@H]1C(=O)NCc1ccc(-c2cnccn2)cc1 [Example 532] | – | –
< 0.05 µM | 26 to 50% | CC(C)(C)[C@H](NC(=O)COCCCCCNc1ccc(C(=O)N[C@H]2C(C)(C)[C@H](Oc3ccc(C#N)c(Cl)c3)C2(C)C)cc1)C(=O)N1C[C@H](O)C[C@H]1C(=O)NCc1ccc(-c2ccncn2)cc1 [Example 533] | – | –
< 0.05 µM | 51 to 70% | CC(C)(C)[C@H](NC(=O)COCCCCCNc1ccc(C(=O)N[C@H]2C(C)(C)[C@H](Oc3ccc(C#N)c(Cl)c3)C2(C)C)cc1)C(=O)N1C[C@H](O)C[C@H]1C(=O)NCc1ccc(-c2cncnc2)cc1 [Example 534] | – | –
< 0.05 µM | 26 to 50% | CC(C)(C)[C@H](NC(=O)COCCCCCNc1ccc(C(=O)N[C@H]2C(C)(C)[C@H](Oc3ccc(C#N)c(Cl)c3)C2(C)C)cc1)C(=O)N1C[C@H](O)C[C@H]1C(=O)NCc1ccc(-c2ncccn2)cc1 [Example 535] | – | –
< 0.05 µM | 26 to 50% | CC(C)(C)[C@H](NC(=O)COCCCCCNc1ccc(C(=O)N[C@H]2C(C)(C)[C@H](Oc3ccc(C#N)c(Cl)c3)C2(C)C)cc1)C(=O)N1C[C@H](O)C[C@H]1C(=O)NCc1ccc(-c2ccccn2)cc1 [Example 536] | – | –
< 0.05 µM | 26 to 50% | Cc1ncsc1-c1ccc(CNC(=O)[C@@H]2C[C@@H](O)CN2C(=O)[C@@H](NC(=O)COCCCCCNc2ccc(C(=O)N[C@H]3C(C)(C)[C@H](Oc4ccc(C#N)c(Cl)c4)C3(C)C)cc2)C(C)C)cc1 [Example 537] | – | –
< 0.05 µM | 26 to 50% | CC(C)(C)[C@H](NC(=O)COCCCCCNc1ccc(C(=O)N[C@H]2C(C)(C)[C@H](Oc3ccc(C#N)c(Cl)c3)C2(C)C)cc1)C(=O)N1C[C@H](O)C[C@H]1C(=O)NCc1ccc(C#N)cn1 [Example 539] | – | –
< 0.05 µM | > 71% | CC(C)(C)[C@H](NC(=O)COCCNc1ccc(-c2ccc(C(=O)N[C@H]3C(C)(C)[C@H](Oc4ccc(C#N)c(Cl)c4)C3(C)C)cc2)cn1)C(=O)N1C[C@H](O)C[C@H]1C(=O)NCc1ccc(C#N)cc1 [Example 540] | – | –
< 0.05 µM | > 71% | C[C@H](NC(=O)[C@@H]1C[C@@H](O)CN1C(=O)[C@@H](NC(=O)COCCCCCNc1ccc(C(=O)N[C@H]2C(C)(C)[C@H](Oc3ccc(C#N)c(Cl)c3)C2(C)C)cc1)C(C)(C)C)c1ccc(C#N)cc1 [Example 541] | – | –
